# According to patent publication US7108865B2, “Controlled-release dosage forms of azithromycin” (Pfizer Inc, priority 1994, dated 2006):
# How the values were obtained:
# [1] = clinical; details: male, human, in vivo
# Text: Healthy male subjects were divided into two groups. Group A received a 2 g azithromycin dose administered directly into the duodenum as a solution via a nasoenteric tube. Group B received the same azithromycin solution dose, administered directly into the ileocecal region of the small intestine via a nasoenteric tube. The nasoenteric tube was a single lumen, 4.5 meter tube with a side port for delivery of drug. Placement of the tube for duodenal and ileocecal delivery was confirmed by fluoroscopy. Infusions to the duodenum or ileocecal region were administered at a concentration of 40 mg/ml within 5 minutes. All subjects were dosed after an overnight fast. Subjects were randomized to receive azithromycin and placebo via nasoenteric tube and intravenous infusion in a double-blind, placebo controlled fashion.
# Blood samples were withdrawn prior to dosing, and at 0.08, 0.17, 0.33, 0.66, 1, 2, 4, 8, 12, 24, 48, 72, and 96 hr post-dosing. Serum azithromycin concentrations were determined using the high performance liquid chromatography assay described in Shepard et al., J. Chromatography, 565: 321–337, (1991). Total systemic exposure to azithromycin was determined by measuring the area under the serum azithromycin concentration vs. time curve (AUC) for each subject in a given group, and then by calculating a mean AUC for the group. Cmax is the highest serum azithromycin concentration achieved in a subject. Tmax is the time at which Cmax is achieved. In one leg of this study, all subjects received an intravenous 2g azithromycin dose. The intravenous AUC was determined in order to calculate the absolute duodenal and ileocecal bioavailabilities, as described below.
# [2] = cited from earlier work
# [3] = Serum azithromycin pharmacokinetics after 2 hr intravenous infusion (Example 3); type: in vivo; details: male, human, 2 hr infusion
# Protocol: Healthy male subjects were divided into four groups. Group A received a 2 hr intravenous infusion of a placebo solution (0 g azithromycin). Group B received a 2 hr intravenous infusion of a 1 g dose of azithromycin. Group C received a 2 hr intravenous infusion of a 2 g dose of azithromycin. Group D received a 2 hr intravenous infusion of a 4 g dose of azithromycin. […] All subjects were dosed after an overnight fast.
# Tmax is the time at which Cmax is achieved.
# [4] = 3,995 patients, all dose levels combined, cited from earlier work
# [5] = Serum azithromycin pharmacokinetics after 2 g oral capsule dose, single vs divided (Example 1); type: in vivo; details: male, human, mean; for AUC(0-t): read-out: AUC0–144
# Protocol: In a double-blind, randomized, placebo-controlled parallel group study, healthy male subjects were divided into three groups. Group A received a single 2 g azithromycin dose as eight 250 mg azithromycin capsules (“bolus dosing” group). Group B received the same total dose, administered as eight 250 mg capsules at the rate of one 250 mg capsule each 30 minutes for 3.5 hr (“divided dosing” group). Group C received matching placebo capsules. All subjects received eight capsules of drug or placebo at time 0, and a capsule of drug or placebo every half-hour for 3.5 hr. All subjects were dosed after an overnight fast. […] Tmax is the time at which Cmax is achieved.
# [6] = Visual Analogue Scale gastrointestinal side effects after duodenal or ileocecal dosing (Example 2); type: in vivo, human; details: for Incidence of Visual-Analogue-Scale score >1, abdominal cramping / Incidence of Visual-Analogue-Scale score >1, abdominal pain / Incidence of Visual-Analogue-Scale score >1, nausea / Incidence of Visual-Analogue-Scale score >1, regurgitation / Incidence of Visual-Analogue-Scale score >4, abdominal cramping / Incidence of Visual-Analogue-Scale score >4, abdominal pain / Incidence of Visual-Analogue-Scale score >4, nausea / Incidence of Visual-Analogue-Scale score >4, regurgitation: any time during 96 hour post-dose, subjects reporting/total; for Mean Cumulative Score (Visual Analogue Scale), abdominal cramping / Mean Cumulative Score (Visual Analogue Scale), abdominal pain / Mean Cumulative Score (Visual Analogue Scale), nausea / Mean Cumulative Score (Visual Analogue Scale), regurgitation: entire 96 hour post-dose period
# Protocol: Healthy male subjects were divided into two groups. […] All subjects were dosed after an overnight fast.
# Prior to dosing and each blood sampling time, each subject filled out a questionnaire, which consisted of a series of “Visual Analogue Scales” in which the subject was required to rate, on a scale of 0–10, the severity of certain potential side effects. The subjects were instructed that “0” indicated an absent effect and “10” indicated the worst possible effect. The subjects were instructed to interpolate between 0 and 10 for moderate side effects.
# Analysis of side effect visual-analogue-scale data was carried out in two formats. In the first format (Table V), the analysis concentrated on the general incidence of side effects of a particular type. For each side effect type (e.g., abdominal pain), Table V reports the number of subjects who reported a score >1 at any time during the 96 hr post-dosing, and the number of subjects who reported a score >4 at any time during the 96 hr post-dosing. This analysis assumes that all scores >1 represent a real side effect occurrence, however mild or severe. A score >4 is presumed to reflect a moderate-to-severe side effect occurrence.
# In the second format (Table VI), the analysis reflects the general severity and duration of side effects. For a particular side effect (e.g., Abdominal Pain) in a particular subject, all visual-analogue-scale scores (over the 96 hr post-dose period) were summed to give a “cumulative score” over the entire time period of evaluation. “Cumulative scores” for all members of a treatment group were summed, and divided by the number of subjects in the group, to give a Mean Cumulative Score. […] Table VI presents Mean Cumulative Scores for abdominal pain, nausea, regurgitation, and abdominal cramping.
# [7] = 250 mg capsule per half-hr for 3.5 hr (2 g total), oral, fasted
# [8] = 2 g single oral dose as eight 250 mg capsules, fasted
# [9] = 2 g directly into the ileocecal region
# [10] = 2 g solution directly into the duodenum, n 5
# [11] = 2 g solution directly into the ileocecal region, n 6
smiles,measurement,setting,value
"CC[C@H]1OC(=O)[C@H](C)[C@@H](O[C@H]2C[C@@](C)(OC)[C@@H](O)[C@H](C)O2)[C@H](C)[C@@H](O[C@@H]2O[C@H](C)C[C@H](N(C)C)[C@H]2O)[C@](C)(O)C[C@@H](C)CN(C)[C@H](C)[C@@H](O)[C@]1(C)O [azithromycin, 9a-aza-9a-methyl-9-deoxo-9a-homoerythromycin A]",AUC0–96,[1],14500 ng·h/mL
same,bioavailability,[1],39.1%
same,bioavailability for duodenal dosing (AUCduodenal/AUCIV×100),[1],43.8%
same,overall systemic exposure (AUC) lower for ileocecal dosing compared with duodenal dosing,[1],15%
same,AUC(0-t),[1]; AUC0–96,17000 ng·h/mL
same,oral bioavailability of an azithromycin capsule,[2]; typical value,about 38%
same,oral bioavailability,[2]; used to convert intravenous to equivalent oral doses,37%
same,AUC(0-inf),"[3]; 1.0 g total IV dose, n = 6",23400 ng·h/mL
same,Cmax,"[3]; 1.0 g total IV dose, n = 6",3110 ng/mL
same,Tmax,"[3]; 1.0 g total IV dose, n = 6",1.9 h
same,AUC(0-inf),"[3]; 2.0 g total IV dose, n = 6",45600 ng·h/mL
same,Cmax,"[3]; 2.0 g total IV dose, n = 6",6840 ng/mL
same,Tmax,"[3]; 2.0 g total IV dose, n = 6",1.8 h
same,AUC(0-inf),"[3]; 4.0 g total IV dose, n = 5",82100 ng·h/mL
same,Cmax,"[3]; 4.0 g total IV dose, n = 5",9910 ng/mL
same,Tmax,"[3]; 4.0 g total IV dose, n = 5",1.1 h
same,patients reporting gastrointestinal side effects,[4]; oral,9.6%
same,incidence of abdominal pain,[4],2.5%
same,incidence of diarrhea,[4],3.6%
same,incidence of nausea,[4],2.6%
same,Cmax,[5]; [7],1130 ng/mL
same,Tmax,[5]; [7],4.4 h
same,AUC(0-t),[5]; [7],18900 ng·h/mL
same,Cmax,"[5]; 2 g single oral dose as eight 250 mg capsules, fasted healthy male subjects",1690 ng/mL
same,Tmax,[5]; [8],1.3 h
same,AUC(0-t),[5]; [8],18800 ng·h/mL
same,"Incidence of Visual-Analogue-Scale score >1, abdominal cramping",[6]; 2 g directly into the duodenum,5/5
same,"Incidence of Visual-Analogue-Scale score >1, abdominal pain",[6]; 2 g directly into the duodenum,4/5
same,"Incidence of Visual-Analogue-Scale score >1, nausea",[6]; 2 g directly into the duodenum,2/5
same,"Incidence of Visual-Analogue-Scale score >1, regurgitation",[6]; 2 g directly into the duodenum,3/5
same,"Incidence of Visual-Analogue-Scale score >4, abdominal cramping",[6]; 2 g directly into the duodenum,0/5
same,"Incidence of Visual-Analogue-Scale score >4, abdominal pain",[6]; 2 g directly into the duodenum,0/5
same,"Incidence of Visual-Analogue-Scale score >4, nausea",[6]; 2 g directly into the duodenum,1/5
same,"Incidence of Visual-Analogue-Scale score >4, regurgitation",[6]; 2 g directly into the duodenum,0/5
same,"Incidence of Visual-Analogue-Scale score >1, abdominal cramping",[6]; [9],2/6
same,"Incidence of Visual-Analogue-Scale score >1, abdominal pain",[6]; [9],2/6
same,"Incidence of Visual-Analogue-Scale score >1, nausea",[6]; [9],2/6
same,"Incidence of Visual-Analogue-Scale score >1, regurgitation",[6]; [9],0/6
same,"Incidence of Visual-Analogue-Scale score >4, abdominal cramping",[6]; [9],0/6
same,"Incidence of Visual-Analogue-Scale score >4, abdominal pain",[6]; [9],0/6
same,"Incidence of Visual-Analogue-Scale score >4, nausea",[6]; [9],0/6
same,"Incidence of Visual-Analogue-Scale score >4, regurgitation",[6]; [9],0/6
same,"Mean Cumulative Score (Visual Analogue Scale), abdominal cramping",[6]; [10],13.2
same,"Mean Cumulative Score (Visual Analogue Scale), abdominal pain",[6]; [10],13.4
same,"Mean Cumulative Score (Visual Analogue Scale), nausea",[6]; [10],11.6
same,"Mean Cumulative Score (Visual Analogue Scale), regurgitation",[6]; [10],7.2
same,"Mean Cumulative Score (Visual Analogue Scale), abdominal cramping",[6]; [11],3.3
same,"Mean Cumulative Score (Visual Analogue Scale), abdominal pain",[6]; [11],2.7
same,"Mean Cumulative Score (Visual Analogue Scale), nausea",[6]; [11],2.0
same,"Mean Cumulative Score (Visual Analogue Scale), regurgitation",[6]; [11],0
